From patent US20230227466A1, “SUBSTITUTED THIENOPYRIMIDINES THAT INTERACT WITH THE RAS SUPERFAMILY FOR THE TREATMENT OF CANCERS, INFLAMMATORY DISEASES, RASOPATHIES, AND FIBROTIC DISEASE” (SHY Therapeutics, LLC, priority 2020, published 2023)
Like-named read-outs stand apart in the source and are kept apart here.

Assays:
[1] = molecular target: T1, KRas G12C mutant (Homo sapiens, UniProt P01116, G12C); experiment: Ras GTP binding domain inhibition assay (labeled-GTP competition, cell-free)
T1 construct: made in house
Excerpt: (§1) This is a competitive binding assay. It involves the immobilization of a protein on solid phase, interaction with a small molecule drug candidate, and then competitive binding with a labeled native GTP or GDP ligand.
(§2) In theory, the assay is suitable for use with any GTP or GDP binding protein.
(§3) The following method was developed as specific assay for the following proteins: KRas wild type, KRas Q61H mutant, KRas G12C mutant, KRas G12D mutant, Rac-1, and Rho-A.
(§4) The small GTPases proteins: KRas wild type. KRas Q61H mutant, KRas G12C mutant, KRas G12D mutants, Rac-1, and Rho-A were expressed as His-tagged proteins. In addition, the Guanosine nucleotide Exchange Factor (GEF) Sos protein (residues 556-1049) was expressed as a His-tagged protein. In cells, the guanine nucleotide exchange factor Sos protein promotes activation of Ras proteins by stimulating an exchange of GDP for GTP. The inclusion of Sos to the Ras GTP binding domain inhibition assay may be considered as an alternative representation of physiological cellular conditions for evaluating the inhibitory activity of some of the tested small molecules.
(§5) For the assay, all purified small GTPases proteins were diluted in Buffer-I or Buffer-II to a final concentration of 10-30 μg/mL. 200 μL of each diluted protein was added to a nickel-coated 96-well plate and incubated overnight at 4° C. Then the protein solution was discarded and 200 μL of Buffer-I or Buffer-II was added to each well in the presence of 1% DMSO. Compounds to be tested were added to the protein-coated wells at final concentration of 20 μM, and incubated for 3 hours at room temperature with and without 10-30 μg/mL of Sos added to the final hour of the incubation. When performing IC50 measurements a serial dilution of all tested concentrations was added. Then Cy3-GTP or Cy5-GTP was added to each well to a final concentration of 100 nM. The labeled GTP was incubated for 45 minutes at room temperature. Following GTP incubation, wells were washed 3× in Buffer-I or Buffer-II and 200 μL of Buffer-I or Buffer-II was added to each well. Following washes, the amount of bound labeled-GTP was measured using a SpectraMax M3 (Molecular Devices).

[2] = molecular target: T2, KRas G12D mutant (Homo sapiens, UniProt P01116, G12D); experiment: as above
T2 construct: made in house
Excerpt: as §1, §2, §3, §4, §5

[3] = molecular target: T3, KRas Q61H mutant (Homo sapiens, UniProt P01116, Q61H); experiment: as above
T3 construct: made in house
Excerpt: as §1, §2, §3, §4, §5

[4] = tested on: Akt phosphorylation in Panc-1 cells; experiment: Western AKT cell-based phosphorylation assay; design: species or system human; conditions: at 10 μM, values in brackets < > are activation %, not inhibition
Protocol: Human Tumor-Derived Pancreatic Cancer Cell Line Panc-1 was Purchased from
American Type Culture Collection and grown in complete DMEM-High Glucose supplemented with penicillin (100 U/mL), streptomycin (100 μg/mL), and 10% heat-inactivated FBS at 37° C. in a humidified incubator with 5% CO2.
Method: Cells were plated at 350000 cells/well density in a 12-well plate, allowed 3 hours to adhere to the plate, then starved in the appropriate medium in the presence of 0.5% FBS overnight. The small molecules to be tested were added to the cells in the final concentration of 10 μM in the presence of 0.3% DMSO for 6 hours incubation at 37° C. Next, cells were stimulated with 1.5 ng/ml EGF for 15 minutes then cells were lysed with lysis buffer containing 1% Triton X-100, EDTA, and Halt™ Protease & Phosphatase Inhibitor Cocktail (Thermo Scientific). Protein concentration was assessed by BCA protein assay (Thermo Scientific). Phosphorylation level of Akt was determined by western blot.
Western blot protocol: Equal amounts of protein (15-50 μg) were separated by SDS-PAGE and transferred to nitrocellulose membranes (Invitrogen by Thermo Fisher Scientific). The membrane was stained with Ponceau S Stain (Boston BioProducts) to verify uniform protein loading. Membranes were blocked with 10% milk and phosphorylation levels of Akt were assessed by incubating overnight at 4° C. with anti-phospho-Akt (Ser473) antibody (Cell Signaling) followed by HRP-conjugated secondary antibody (Jackson Immunoresearch, West Grove, Pa.). Bands were incubated in Amersham ECL Prime Western Blotting Detection Reagent (GE Healthcare) and visualized using the ChemiDoc MP imaging system (Bio-Rad).

[5] = with SOS, read-out: KRas G12C mutant + SOS: % inh.
[6] = without SOS, read-out: KRas G12C mutant: % inh.
[7] = with SOS, read-out: KRas G12D mutant + SOS: % inh.
[8] = without SOS, read-out: KRas G12D mutant: % inh.
[9] = with SOS, read-out: KRas Q61H mutant + SOS: % inh.
[10] = without SOS, read-out: KRas Q61H mutant: % inh.

Row | SMILES | inhibition at 20 µM [1, 5] | inhibition at 20 µM [1, 6] | inhibition at 20 µM [2, 7] | inhibition at 20 µM [2, 8] | inhibition at 20 µM [3, 9] | inhibition at 20 µM [3, 10] | IC50 ([3]; with SOS) | % inh of AKT phosphorylation in PANC-1 [4]
1 | Cn1ccnc1-c1nc(O)c2scc(-c3ncccc3F)c2n1 [Compound 30, 7-(3-Fluoropyridin-2-yl)-2-(1-methyl-1H-imidazol-2-yl)thieno[3,2-d]pyrimidin-4-ol] | 76 to 100% | 51 to 75% | 51 to 75% | 51 to 75% | 76 to 100% | 51 to 75% | 1 to 4.99 µM | 0 (0% inhibition)
2 | CO[C@H]1CC[C@@H](Nc2nc(C(=O)Nc3ccccn3)nc3sccc23)C1 (racemic) [Compound 16, rac-4-(((1R,3S)-3-Methoxycyclopentyl)amino)-N-(pyridin-2-yl)thieno[2,3-d]pyrimidine-2-carboxamide] | 1 to 25% | 1 to 25% | 1 to 25% | 1 to 25% | 0% | 1 to 25% | > 10 µM | 0 (0% inhibition)
3 | CO[C@H]1CC[C@@H](Nc2nc(C(=O)Nc3ccccc3)nc3sccc23)C1 (racemic) [Compound 15, rac-4-(((1R,3S)-3-Methoxycyclopentyl)amino)-N-phenylthieno[2,3-d]pyrimidine-2-carboxamide] | 0% | 1 to 25% | 0% | 0% | 0% | 1 to 25% | > 10 µM | 0 (0% inhibition)
4 | COCCNC(=O)c1nc(N[C@@H]2CC[C@H](OC)C2)c2ccsc2n1 (racemic) [Compound 14, rac-4-(((1R,3S)-3-Methoxycyclopentyl)amino)-N-(2-methoxyethyl)thieno[2,3-d]pyrimidine-2-carboxamide] | 0% | 0% | 1 to 25% | 1 to 25% | 1 to 25% | 0% | > 10 µM | 0 (0% inhibition)
5 | Cc1c(-c2ccn(C(C)C)n2)sc2nc(-c3nccn3C)nc(NCc3c[nH]cn3)c12 [Compound 59, N-((1H-Imidazol-4-yl)methyl)-6-(1-isopropyl-1H-pyrazol-3-yl)-5-methyl-2-(1-methyl-1H-imidazol-2-yl)thieno[2,3-d]pyrimidin-4-amine] | 76 to 100% | 51 to 75% |  |  | 76 to 100% | 51 to 75% |  | 0 (0% inhibition)
6 | Cc1c(-c2ccn(C(C)C)n2)sc2nc(-c3nccn3C)nc(NCc3n[nH]c(=O)n3C)c12 [Compound 60, 5-(((6-(1-Isopropyl-1H-pyrazol-3-yl)-5-methyl-2-(1-methyl-1H-imidazol-2-yl)thieno[2,3-d]pyrimidin-4-yl)amino)methyl)-4-methyl-2,4-dihydro-3H-1,2,4-triazol-3-one] | 51 to 75% | 26 to 50% |  |  | 51 to 75% | 51 to 75% |  | 0 (0% inhibition)

Further lines, with some results ahead:

Row | inhibition at 20 µM [1, 5] | inhibition at 20 µM [1, 6] | inhibition at 20 µM [2, 7] | inhibition at 20 µM [2, 8] | inhibition at 20 µM [3, 9] | inhibition at 20 µM [3, 10] | IC50 ([3]; with SOS) | SMILES | % inh of AKT phosphorylation in PANC-1 [4]
7 | 1 to 25% | 0% | 0% | 51 to 75% | 0% | 0% |  | Cc1c(-c2ccn(C(C)C)n2)sc2nc(-c3ccccn3)nc(N3CCC(COC(C)C)C3)c12 (stereo not drawn) [Compound 72, 4-(3-(Isopropoxymethyl)pyrrolidin-1-yl)-6-(1-isopropyl-1H-pyrazol-3-yl)-5-methyl-2-(pyridin-2-yl)thieno[2,3-d]pyrimidine] | B (26-50% inhibition)
8 | 1 to 25% | 26 to 50% | 26 to 50% | 26 to 50% | 26 to 50% | 26 to 50% |  | COc1cccn2c(-c3nc(O)c4scc(-c5ccccn5)c4n3)ncc12 [Compound 84, 2-(8-Methoxyimidazo[1,5-a]pyridin-3-yl)-7-(pyridin-2-yl)thieno[3,2-d]pyrimidin-4-ol] | A (1-25% inhibition)
9 | 76 to 100% | 26 to 50% |  |  | 76 to 100% | 26 to 50% |  | COc1cccc(Nc2nc(-c3nccn3C)nc3sc(-c4ccn(C(C)C)n4)c(C)c23)c1 [Compound 64, 6-(1-Isopropyl-1H-pyrazol-3-yl)-N-(3-methoxyphenyl)-5-methyl-2-(1-methyl-1H-imidazol-2-yl)thieno[2,3-d]pyrimidin-4-amine] | B (26-50% inhibition)
10 | 51 to 75% | 26 to 50% |  |  | 26 to 50% | 51 to 75% |  | COC1CCCN(c2nc(-c3nccn3C)nc3sc(-c4ccn(C(C)C)n4)c(C(F)(F)F)c23)C1 (racemic) [Compound 75, Rac-6-(1-Isopropyl-1H-pyrazol-3-yl)-4-(3-methoxypiperidin-1-yl)-2-(1-methyl-1H-imidazol-2-yl)-5-(trifluoromethyl)thieno[2,3-d]pyrimidine] | 0 (0% inhibition)
11 | 76 to 100% | 51 to 75% |  |  | 76 to 100% | 76 to 100% |  | CO[C@@H]1CC[C@H]1CNc1nc(-c2nccn2C)nc2sc(-c3ccn(C(C)C)n3)c(C)c12 (racemic) [Compound 61, rac-6-(1-Isopropyl-1H-pyrazol-3-yl)-N-(((1S,2R)-2-methoxycyclobutyl)methyl)-5-methyl-2-(1-methyl-1H-imidazol-2-yl)thieno[2,3-d]pyrimidin-4-amine] | 0 (0% inhibition)
12 | 51 to 75% | 1 to 25% |  |  | 51 to 75% | 51 to 75% |  | COCC1CCN(c2nc(-c3nccn3C)nc3sc(-c4ccn(C(C)C)n4)c(C(F)(F)F)c23)C1 (racemic) [Compound 74, Rac-6-(1-Isopropyl-1H-pyrazol-3-yl)-4-(3-(methoxymethyl)pyrrolidin-1-yl)-2-(1-methyl-1H-imidazol-2-yl)-5-(trifluoromethyl)thieno[2,3-d]pyrimidine] | 0 (0% inhibition)
13 | 76 to 100% | 1 to 25% |  |  | 51 to 75% | 51 to 75% |  | CO[C@H]1CC[C@@H](Nc2nc(-c3nccn3C)nc3sc(-c4ccn(C(C)C)n4)c(C(F)(F)F)c23)C1 (racemic) [Compound 73, Rac-6-(1-isopropyl-1H-pyrazol-3-yl)-N-((1R,3S)-3-methoxycyclopentyl)-2-(1-methyl-1H-imidazol-2-yl)-5-(trifluoromethyl)thieno[2,3-d]pyrimidin-4-amine] | A (1-25% inhibition)
